In PMC5577610, “Nine New Triterpene Glycosides, Magnumosides A1–A4, B1, B2, C1, C2 and C4, from the Vietnamese Sea Cucumber Neothyonidium (=Massinium) magnum: Structures and Activities against Tumor Cells Independently and in Synergy with Radioactive Irradiation” (Marine Drugs, 2017):
Structures can show the parent of a compound that is named as a salt.

Experiments:
Type in all cases: cell-based
mouse erythrocytes = conditions: for Hemolytic action (in words): mouse erythrocytes
Method: The erythrocytes were washed thrice with 0.9% NaCl, centrifuged (450 g) on a centrifuge […] (Heraeus, Hanau, Germany) for 5 min followed by re-suspending in phosphate-buffered saline (PBS), pH 7.2-7.4. […] ED50 was calculated using SigmaPlot 3.02 software (Jandel Scientific, San Rafael, CA, USA). […] The erythrocyte suspension in phosphate-buffered saline, pH 7.2-7.4 (PBS) with 20 μL of the solvent without a tested compound was used as negative control.

[1] = tested on: human colorectal adenocarcinoma DLD-1 cells; test: Cytotoxicity against DLD-1 cells (MTS assay); conditions: for Cytotoxic effect against DLD-1 cells (in words): 0–100 µM, 24 h; for IC50: Homo sapiens, DLD-1, read-out: IC50 (50% reduction in cell viability), DLD-1 cells, 24 h, 0–100 µM
Method: (§1) Human colorectal adenocarcinoma cells DLD-1 were cultured in RPMI-1640 medium. Culture media was supplemented with 10% fetal bovine serum (FBS) and penicillin—streptomycin solution. Cells were maintained in a sterile environment and kept in an incubator at 5% CO2 and 37 °C to promote growth. DLD-1 cells were sub-cultured every 3–4 days by their rinsing with phosphate buffered saline (PBS), adding trypsin to detach the cells from the tissue culture flask, and transferring 10–20% of the harvested cells to a new flask containing fresh growth media.
DLD-1 cells (1.0 × 10^4/well) were seeded in 96-well plates for 24 h at 37 °C in 5% CO2 incubator. The cells were treated with the compounds 1–9 at concentrations range from 0 to 100 µM for additional 24 h. Subsequently, cells were incubated with 15 µL MTS reagent for 3 h, and the absorbance of each well was measured at 490/630 nm using microplate reader “Power Wave XS” (Bio Tek, Winooski, VT, USA). All the experiments were repeated three times, and the mean absorbance values were calculated. The results are expressed as the percentage of inhibition that produced a reduction in absorbance by compound’s treatment compared to the non-treated cells (control).

[2] = Cytotoxic activity (MTT) against the ascites form of mouse Ehrlich carcinoma cells; conditions: mouse
Method: (§2) The spleenocytes from CD-1 line mice were used. The spleen was isolated from mice and homogenized. The spleenocytes were washed thrice and resuspended with RPMI-1640 medium contained gentamicine 8 μg/mL (Biolot, Saint Petersburg, Russia). The museum tetraploid strain of murine ascites Ehrlich carcinoma cells from the All-Russian cancer center RAMS (Moscow, Russia) was used. The cells of the ascites Ehrlich carcinoma were separated from ascites, which were collected on day 7 after inoculation in mouse CD-1 line. The cells were washed of ascites thrice and then resuspended in liquid media DMEM with L-Glutamine (Biolot, Saint Petersburg, Russia).
(§3) The solutions of tested substances in different concentrations (20 µL) and cell suspension (200 µL) were added in wells of 96-well plate and incubated over night at 37 °C and 5% CO2. After incubation the cells were sedimented by centrifugation, 200 µL of medium from each well were collected and 100 µL of pure medium were added. Then 10 µL of MTT solution […] (Sigma, St. Louis, MO, USA) were added in each well. Plate was incubated 4 h, after that 100 µL SDS-HCl were added to each well and plate was incubated at 37 °C 4–18 h. Optical density was measured at 570 nm and 630–690 nm. The activity of the substances was calculated as the ratio of the dead cells to general cells amount (ED50). Typicoside A1 [28] and cucumarioside A2-2 [11] were used as positive controls.

mouse spleenocytes = test: Cytotoxic activity (MTT) against mouse spleenocytes; conditions: up to the ultimate investigated concentration of 100 μM
Method: as §2, §3

[3] = as above; conditions: CD-1, mouse
Method: as §2, §3

[4] = tested on: human colorectal adenocarcinoma DLD-1 cells; test: Soft agar assay, colony formation of DLD-1 cells; conditions: 14 days; for Reduction of colonies size: 10 µM; for inhibition at 10 µM: Homo sapiens, DLD-1, 336 h, read-out: Inhibition of spontaneous colony formation (number of colonies)
Method: as §1
DLD-1 cells (8.0 × 10^3) were seeded in 6-well plate and treated with the 3, 7–9 (10 µM) in 1 mL of 0.3% Basal Medium Eagle (BME) agar containing 10% FBS, 2 mM L-glutamine, and 25 µg/mL gentamicin. The cultures were maintained at 37 °C in a 5% CO2 incubator for 14 days, and the cell’s colonies were scored using a microscope “Motic AE 20” (Scientific Instrument Company, Campbell, CA, USA) and the Motic Image Plus computer program (Scientific Instrument Company, Campbell, CA, USA).

[5] = tested on: human colorectal adenocarcinoma DLD-1 cells; test: Radioactive irradiation plus compounds, DLD-1 cell proliferation (MTS); conditions: compounds 2 µM, radiation 4 Gy, 96 h, MTS assay, read-out: Increase of the inhibitory effect from radiation on proliferation
Method: Figure 7 The effect of radioactive irradiation and a combination of radioactive irradiation and the compounds 3, 7–9 on DLD-1 cancer cell proliferation. DLD-1 cells (8.0 × 10^3) were treated with radiation 4 Gy and the compounds 3, 7–9 (2 µM) for 96 h. Cell viability was estimated using the MTS assay. Data are represented as the mean ± SD as determined from triplicate experiments. A Student’s t-test was used to evaluate the data with the following significance levels: * p < 0.05, ** p < 0.01.
DLD-1 cells (8 × 10^3) cells were seeded in 96-well plates in […] of RPMI-1640/10%FBS medium at 37 °C in a 5% CO2 incubator for 24 h. Then the cells were treated with 2 µM of 3, 7–9 for additional 24, 48, 72 or 96 h at 37 °C in a 5% CO2 atmosphere. The reaction was terminated by adding MTS reagent to each well as described in the Section 3.5.5.
Irradiation was delivered at room temperature using single doses of X-ray system XPERT 80 (KUB Technologies, Inc, Milford, CT, USA). The doses were from 4 to 8 Gy for colony formation assay. The absorber dose was measured using X-ray radiation clinical dosimeter DRK-1 (Akselbant, Moscow, Russia).
DLD-1 cells (5.0 × 10^5) were plated at 60 mm dishes and incubated for 24 h. After the incubation, the cells were cultured in the presence or absence of 2 μM 3, 7–9 for additional 24 h before irradiation at the dose of 4 Gy. Immediately after irradiation, cells were returned to the incubator for recovery. Three hour later, the cells were harvested and used for soft agar assay or proliferation assay to establish the synergism of radioactive irradiation and investigated compounds effects on colony formation or proliferation of tested cells.

Compound	Hemolytic action (in words) (mouse erythrocytes)	Cytotoxic effect against DLD-1 cells (in words) [1]	IC50 [1]	IC50 [2]	Cytotoxic action against spleenocytes (in words) (mouse spleenocytes)	IC50 [3]	Reduction of colonies size [4]	inhibition at 10 µM [4]	inhibition at 2 µM [5]	Hemolysis of cells (mouse erythrocytes; concentration 1%, positive control)
CC1OC(OC2C(OC3CCC4(C)C5CCC67C(=O)OC(CC6(C)C5=CCC4C3(C)C)C7C3(C)CCC(C(C)(C)O)O3)OCC(OS(=O)(=O)O)C2O)C(O)C(O)C1O [Compound 1, 3β-O-[β-D-quinovopyranosyl-(1→2)-4-O-sodium sulfate-β-D-xylopyranosyl]-9βH,20(S),24(S)-epoxy-25-hydroxylanosta-7-ene-18(16)-lactone]	inactive	did not possessed cytotoxic effect	> 100 µM	> 100 µM	inactive	> 100 µM	–	–	–	–
C=C(C)C(O)CCC(C)(O)C1C2CC3(C)C4=CCC5C(C)(C)C(OC6OCC(OS(=O)(=O)O)C(O)C6OC6OC(C)C(O)C(O)C6O)CCC5(C)C4CCC13C(=O)O2 [Compound 2, 3β-O-[β-D-quinovopyranosyl-(1→2)-4-O-sodium sulfate-β-D-xylopyranosyl]-9βH,20(S),24(S)-dihydroxylanosta-7,25-diene-18(16)-lactone]	moderate hemolytic activity	did not possessed cytotoxic effect	> 100 µM	> 100 µM	–	94.2 ± 1.18 µM	–	–	–	–
C=C(C)CCCC(C)(O)C1C2CC3(C)C4=CCC5C(C)(C)C(OC6OCC(OS(=O)(=O)O)C(O)C6OC6OC(C)C(O)C(O)C6O)CCC5(C)C4CCC13C(=O)O2 [Compound 3, 3β-O-[β-D-quinovopyranosyl-(1→2)-4-O-sodium sulfate-β-D-xylopyranosyl]-9βH,20(S)-hydroxylanosta-7,25-diene-18(16)-lactone]	–	–	30.3 µM	18.95 ± 0.03 µM	–	19.2 ± 0.03 µM	49%	22%	> 30%	–
CC(C)=CCCC(C)(O)C1C2CC3(C)C4=CCC5C(C)(C)C(OC6OCC(OS(=O)(=O)O)C(O)C6OC6OC(C)C(O)C(O)C6O)CCC5(C)C4CCC13C(=O)O2 [Compound 4, 3β-O-[β-D-quinovopyranosyl-(1→2)-4-O-sodium sulfate-β-D-xylopyranosyl]-9βH,20(S)-hydroxylanosta-7,24-diene-18(16)-lactone]	–	–	> 100 µM	28.4 ± 0.42 µM	–	37.6 µM	–	–	–	–
COC1C(O)C(CO)OC(OC2COC(OC3C(C)OC(OC4C(OC5CCC6(C)C7CCC89C(=O)OC(CC8(C)C7=CCC6C5(C)C)C9C(C)(O)CC=CC(C)(C)O)OCC(OS(=O)(=O)O)C4O)C(O)C3O)C(O)C2O)C1O [Compound 5, 3β-O-[3-O-methyl-β-D-glucopyranosyl-(1→3)-β-D-xylopyranosyl-(1→4)-β-D-quinovopyranosyl-(1→2)-4-O-sodium sulfate-β-D-xylopyranosyl]-9βH,20(S),25-dihydroxylanosta-7,23E-diene-18(16)-lactone]	moderate hemolytic activity	–	> 100 µM	> 100 µM	–	> 100 µM	–	–	–	–
C=C(C)C(O)CCC(C)(O)C1C2CC3(C)C4=CCC5C(C)(C)C(OC6OCC(OS(=O)(=O)O)C(O)C6OC6OC(C)C(OC7OCC(OC8OC(CO)C(O)C(OC)C8O)C(O)C7O)C(O)C6O)CCC5(C)C4CCC13C(=O)O2 [Compound 6, 3β-O-[3-O-methyl-β-D-glucopyranosyl-(1→3)-β-D-xylopyranosyl-(1→4)-β-D-quinovopyranosyl-(1→2)-4-O-sodium sulfate-β-D-xylopyranosyl]-9βH,20(S),24(S)-dihydroxylanosta-7,25-diene-18(16)-lactone]	moderate hemolytic activity	–	> 100 µM	> 100 µM	–	> 100 µM	–	–	–	–
COC1C(O)C(COS(=O)(=O)O)OC(OC2COC(OC3C(C)OC(OC4C(OC5CCC6(C)C7CCC89C(=O)OC(CC8(C)C7=CCC6C5(C)C)C9C(C)(O)CC=CC(C)(C)O)OCC(OS(=O)(=O)O)C4O)C(O)C3O)C(O)C2O)C1O [Compound 7, 3β-O-[6-O-sodium sulfate-3-O-methyl-β-D-glucopyranosyl-(1→3)-β-D-xylopyranosyl-(1→4)-β-D-quinovopyranosyl-(1→2)-4-O-sodium sulfate-β-D-xylopyranosyl]-9βH,20(S),25-dihydroxylanosta-7,23E-diene-18(16)-lactone]	significant effects	–	32.9 µM	18.7 µM	–	8.97 ± 0.04 µM	43%	26%	–	–
C=C(C)C(O)CCC(C)(O)C1C2CC3(C)C4=CCC5C(C)(C)C(OC6OCC(OS(=O)(=O)O)C(O)C6OC6OC(C)C(OC7OCC(OC8OC(COS(=O)(=O)O)C(O)C(OC)C8O)C(O)C7O)C(O)C6O)CCC5(C)C4CCC13C(=O)O2 [Compound 8, 3β-O-[6-O-sodium sulfate-3-O-methyl-β-D-glucopyranosyl-(1→3)-β-D-xylopyranosyl-(1→4)-β-D-quinovopyranosyl-(1→2)-4-O-sodium sulfate-β-D-xylopyranosyl]-9βH,20(S),24(S)-dihydroxylanosta-7,25-diene-18(16)-lactone]	significant effects	–	37.1 µM	37.5 µM	–	17.3 ± 0.43 µM	less than 20%	< 20%	> 30%	–
COC1C(O)C(COS(=O)(=O)O)OC(OC2COC(OC3C(C)OC(OC4C(OC5CCC6(C)C7CCC89C(=O)OC(CC8(C)C7=CCC6C5(C)C)C9C(C)(O)CCC=C(C)C)OCC(OS(=O)(=O)O)C4O)C(O)C3O)C(O)C2O)C1O [Compound 9, 3β-O-[6-O-sodium sulfate-3-O-methyl-β-D-glucopyranosyl-(1→3)-β-D-xylopyranosyl-(1→4)-β-D-quinovopyranosyl-(1→2)-4-O-sodium sulfate-β-D-xylopyranosyl]-9βH,20(S)-hydroxylanosta-7,24-diene-18(16)-lactone]	–	–	33.9 µM	35.06 ± 0.18 µM	–	12.2 ± 0.33 µM	less than 20%	< 20%	45%	–
Triton X-100 [reference compound]	–	–	–	–	–	–	–	–	–	100%
